In paper PMC9721440, “Investigation of the enantioselectivity of acetylcholinesterase and butyrylcholinesterase upon inhibition by tacrine-iminosugar heterodimers” (Journal of Enzyme Inhibition and Medicinal Chemistry, 2022):
“Also recorded” adds a separate entry of the source.

Experiments:
AChE = details: cited from earlier work; for inhibition of AChE: 20 μM inhibitor concentration
[1] = target: AChE from Electrophorus electricus (eeAChE) (Electrophorus electricus, UniProt O42275); assay: biochemical; type: biochemical; details: for IC50: [S] = 121 µM, mean ± SD; for Enantioselectivity (eeAChE): IC50(Xa:AChE)/IC50(Xb:AChE); for fold more potent eeAChE inhibitor than 10a: IC50 ratio vs 10a
Text: (§1) A Thermo Scintific^TM Varioskan^TM LUX microplate reader and Greiner F-bottom 96-well plates were used. Cornish-Bowden plots (1/V vs. [I] and [S]/V vs. [I]) were used for the visualisation of the mode of inhibition.
(§2) A minor modification of the Ellman assay was used in order to measure the IC50 values.

[2] = target: T1, BuChE from equine serum (eqBuChE) (Equus caballus, UniProt P81908); assay: biochemical; type: biochemical; details: for IC50: [S] = 112 µM, mean ± SD; for Enantioselectivity (eqBuChE): IC50(Xa:BuChE)/IC50(Xb,BuChE)
T1 construct: BuChE from equine serum; from tissue; host or cells: equine serum
Text: as §1, §2

[3] = test system: A549, HBL-100, HeLa, SW1573, T-47D and WiDr cells; assay: Antiproliferative SRB assay, panel of six cancer cell lines; type: cell-based; details: Homo sapiens, 48 h exposure, whole panel, read-out: GI50 against panel of six human cancer cell lines
Text: (§3) For the antiproliferative tests, we applied our implementation of the National Cancer Institute (NCI) screening protocol. As a model of human solid tumour cells, we selected the cell lines A549 (non-small cell lung), HBL-100 (breast), HeLa (cervix), SW1573 (non-small cell lung), T-47D (breast), and WiDr (colon). Cell seeding densities, based on the cell line doubling time, were 2500 (A549, HBL-100, HeLa and SW1573) or 5000 (T-47D and WiDr) cells/well. Compounds were initially dissolved in DMSO at 400 times the desired final maximum test concentration. […] Each compound was tested in triplicate at different dilutions ranging from 1 to 100 μM. Drug treatment began on day 1 after sowing. The drug incubation times were 48 h, after which the cells were precipitated with ice-cold TCA (50% w/v) and fixed for 60 min at 4 °C. Then the SRB test was performed. The optical density (OD) of each well was measured at 530 nm using a microplate absorbance reader (PowerWave XS, BioTek Instruments Inc.). Values were corrected for background OD of wells containing medium only[39].
(§4) Antiproliferative activity of our heterodimers was investigated for six cancer cell lines including A549, HBL-100, HeLa, SW1573, T-47D and WiDr.

[4] = test system: A549 (non-small cell lung) cells; assay: Antiproliferative SRB assay, A549; type: cell-based, human; details: 48 h exposure
Text: as §3, §4

HeLa (cervix) cells = assay: Antiproliferative SRB assay, HeLa; type: cell-based; details: Homo sapiens, 48 h exposure
Text: as §3, §4

HBL-100 (breast) cells = assay: Antiproliferative SRB assay, HBL-100; type: cell-based; details: Homo sapiens, 48 h exposure
Text: as §3, §4

WiDr (colon) cells = assay: Antiproliferative SRB assay, WiDr; type: cell-based; details: Homo sapiens, 48 h exposure
Text: as §3, §4

[5] = test system: SW1573 (non-small cell lung) cells; assay: Antiproliferative SRB assay, SW1573; type: cell-based; details: Homo sapiens, 48 h exposure
Text: as §3, §4

T-47D (breast) cells = assay: Antiproliferative SRB assay, T-47D; type: cell-based; details: Homo sapiens, T47D, 48 h exposure
Text: as §3, §4

Sequence of AChE from Electrophorus electricus (eeAChE) (O42275 24-633): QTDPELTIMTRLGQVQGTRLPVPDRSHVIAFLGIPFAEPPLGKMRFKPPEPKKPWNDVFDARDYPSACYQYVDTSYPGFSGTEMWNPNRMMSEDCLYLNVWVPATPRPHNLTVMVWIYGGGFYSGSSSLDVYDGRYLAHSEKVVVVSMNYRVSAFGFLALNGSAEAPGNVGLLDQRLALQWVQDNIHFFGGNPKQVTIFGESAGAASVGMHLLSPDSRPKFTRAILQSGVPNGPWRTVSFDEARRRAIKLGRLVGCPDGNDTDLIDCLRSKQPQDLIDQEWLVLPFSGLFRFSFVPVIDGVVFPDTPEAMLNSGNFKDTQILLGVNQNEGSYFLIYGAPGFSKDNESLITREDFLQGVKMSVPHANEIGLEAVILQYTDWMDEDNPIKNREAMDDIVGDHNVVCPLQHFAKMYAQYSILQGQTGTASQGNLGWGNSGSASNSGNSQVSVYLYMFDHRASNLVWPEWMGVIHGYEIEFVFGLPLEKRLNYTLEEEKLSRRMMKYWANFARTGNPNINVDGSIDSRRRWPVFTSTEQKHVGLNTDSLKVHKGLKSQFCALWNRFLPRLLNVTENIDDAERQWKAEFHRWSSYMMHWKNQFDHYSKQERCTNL
T1 sequence (P81908 whole entry): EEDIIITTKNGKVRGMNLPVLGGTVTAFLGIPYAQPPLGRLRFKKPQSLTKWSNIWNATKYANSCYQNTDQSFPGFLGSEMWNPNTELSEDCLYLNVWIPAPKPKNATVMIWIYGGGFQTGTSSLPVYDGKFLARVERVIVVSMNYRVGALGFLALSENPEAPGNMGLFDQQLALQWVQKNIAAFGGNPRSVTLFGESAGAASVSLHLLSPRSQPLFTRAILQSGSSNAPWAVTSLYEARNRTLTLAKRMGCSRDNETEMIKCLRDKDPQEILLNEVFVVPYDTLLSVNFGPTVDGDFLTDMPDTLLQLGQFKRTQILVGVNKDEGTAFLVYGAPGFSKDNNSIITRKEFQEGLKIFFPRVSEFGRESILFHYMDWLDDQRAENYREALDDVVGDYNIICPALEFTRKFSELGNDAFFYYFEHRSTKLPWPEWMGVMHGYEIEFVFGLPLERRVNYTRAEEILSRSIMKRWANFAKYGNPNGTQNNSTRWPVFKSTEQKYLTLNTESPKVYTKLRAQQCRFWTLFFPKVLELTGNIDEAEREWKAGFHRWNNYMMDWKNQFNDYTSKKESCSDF

COc1ccc2c3c1O[C@H]1C[C@@H](O)C=C[C@@]31CCN(C)C2 [(-)-Galantamine (2a), (-)-Galantamine]
inhibition of AChE (AChE): ca. 94%

CNC(=O)Oc1ccc2c(c1)[C@]1(C)CCN(C)[C@@H]1N2C [(-)-physostigmine (3a), (-)-physostigmine]
fold stronger AChE inhibitor than (+)-physostigmine (3b) (AChE; depending on the enzyme source): 25- to 1000 fold

COc1ccc2c3c1O[C@@H]1C[C@H](O)C=C[C@]31CCN(C)C2 [Compound 2b]
inhibition of AChE (AChE): ca. 4%

OC[C@@H]1[C@@H](O)[C@H](O)CN1Cc1cn(CCNc2c3c(nc4ccccc24)CCCC3)nn1 [Compound 9a]
IC50 [1]: 0.42 ± 0.01 µM | IC50 [2]: 0.096 ± 0.005 µM | GI50 [3]: > 100 µM

OC[C@H]1[C@H](O)[C@@H](O)CN1Cc1cn(CCNc2c3c(nc4ccccc24)CCCC3)nn1 [Compound 9b]
Enantioselectivity (eeAChE) [1]: 0.28 | IC50 [1]: 1.48 ± 0.24 µM | Enantioselectivity (eqBuChE) [2]: 0.54 | IC50 [2]: 0.179 ± 0.025 µM | GI50 [3]: > 100 µM

OC[C@@H]1[C@@H](O)[C@H](O)CN1Cc1cn(CCCNc2c3c(nc4ccccc24)CCCC3)nn1 [Compound 10a]
fold less potent eeAChE inhibitor than 10b ([1]; IC50 ratio vs 10b, less potent): ca. 3.5 fold | IC50 [1]: 0.53 ± 0.03 µM | IC50 [2]: 0.184 ± 0.016 µM | GI50 [3]: > 100 µM

OC[C@H]1[C@H](O)[C@@H](O)CN1Cc1cn(CCCNc2c3c(nc4ccccc24)CCCC3)nn1 [Compound 10b]
Enantioselectivity (eeAChE) [1]: 3.5 | fold more potent eeAChE inhibitor than 10a [1]: ca. 4 fold | IC50 [1]: 0.15 ± 0.038 µM | Enantioselectivity (eqBuChE) [2]: 0.79 | IC50 [2]: 0.232 ± 0.028 µM | GI50 [3]: > 100 µM

OCC1C(O)C(O)CN1Cc1cn(CCCCCCNc2c3c(nc4ccccc24)CCCC3)nn1 (centres unmarked) [Compound 11a]
GI50 [4]: 94 ± 9.6 µM | GI50 ([4]; Homo sapiens, A549, 48 h): < 100 µM | GI50 (HeLa (cervix) cells): 93 ± 12 µM | GI50 (HBL-100 (breast) cells): > 100 µM | fold more potent eeAChE inhibitor than 9a ([1]; IC50 ratio vs 9a): ca. 43 fold | fold more potent eeAChE inhibitor than 10a [1]: 55 fold | IC50 [1]: 0.0097 ± 0.001 µM | fold stronger eqBuChE inhibitor than 9a ([2]; IC50 ratio vs 9a): roughly 11 fold | fold stronger eqBuChE inhibitor than 10a ([2]; IC50 ratio vs 10a): 20 fold | IC50 [2]: 0.0091 ± 0.0003 µM | GI50 (WiDr (colon) cells): > 100 µM | GI50 [5]: > 100 µM | GI50 (T-47D (breast) cells): > 100 µM

OC[C@H]1[C@H](O)[C@@H](O)CN1Cc1cn(CCCCCCNc2c3c(nc4ccccc24)CCCC3)nn1 [Compound 11b]
GI50 [4]: 84 ± 28 µM | GI50 ([4]; Homo sapiens, A549, 48 h): < 100 µM | GI50 (HeLa (cervix) cells): > 100 µM | GI50 (HBL-100 (breast) cells): > 100 µM | Mode of inhibition eeAChE ([1]; Cornish-Bowden plots): mixed; also recorded: (mixed) | Enantioselectivity (eeAChE) [1]: 0.91 | fold more potent eeAChE inhibitor than 9b ([1]; IC50 ratio vs 9b): ca. 138 fold | fold more potent eeAChE inhibitor than 10b ([1]; IC50 ratio vs 10b): ~14 fold | IC50 [1]: 0.0107 ± 0.0003 µM | Ki ([1]; mixed inhibition, Cornish-Bowden, read-out: Ki (competitive inhibition constant) eeAChE): 0.019 µM | Mode of inhibition eqBuChE ([2]; Cornish-Bowden plots): mixed; also recorded: (mixed) | Enantioselectivity (eqBuChE) [2]: 1.1 | fold stronger eqBuChE inhibitor than 9b ([2]; IC50 ratio vs 9b): 22 fold | fold stronger eqBuChE inhibitor than 10b ([2]; IC50 ratio vs 10b): 29 fold | IC50 [2]: 0.0081 ± 0.0001 µM | Ki ([2]; mixed inhibition, Cornish-Bowden, read-out: Ki (competitive inhibition constant) eqBuChE): 0.01 µM | GI50 (WiDr (colon) cells): > 100 µM | GI50 [5]: 97 ± 5.4 µM | GI50 (T-47D (breast) cells): > 100 µM
